Assay results from patent US7109244B2, “Compositions and methods comprising long-chain, straight-chain 2-amino-3-hydroxyalkanes” (priority 1997, dated 2006).

What was measured:
K562 = assay: expanded in vitro screen, K562; assay type: cell-based; conditions: Homo sapiens; K562, Leukemia
Procedure: (§1) An expanded in vitro screen was performed of spisulosine 285 against a series of different cell lines.

786-0 = assay: expanded in vitro screen, 786-0; assay type: cell-based; conditions: Homo sapiens; 786-0, Renal, solid
Procedure: as §1

Rho protein = Rho protein electrophoresis / Western blot and subcellular fractionation (Example C); assay type: cell-based; conditions: 0.5 mM, 20 hour
Procedure: The small GTP binding protein Rho is involved in the formation of actin-myosin “stress fibers” (Hall, A., Science, 279, 1998, p 509–514). Therefore, the electrophoretic mobility and cellular distribution of Rho was analyzed in cells treated with spisulosine 285.
FIG. 5 is an electrophoretogram of Example C. In panel A, equivalent amounts of protein from a cell extract from untreated (a) or from 0.5 mM spisulosine 285 treated (20 hour) cells (b) were fractionated by gel electrophoresis and blotted onto nitrocellulose paper to analyze the amount of the Rho protein.
In panel B the experiment was carried out as above, except that the homogenate was fractionated into a particulate (membrane, “M”) fraction and soluble (“S”) fraction.
Subcellular fractionation was carried out by placing cells in a hypotonic buffer (0.25 M sucrose, 20 mM HEPES pH 7.4, 2 mM EDTA, 1 mM PMSF, […] aprotinin, leupeptine and pestatine), and lysing them with a Dounce. The homogenate was first centrifuged at 750 g for 5 minutes to remove nuclei and unbroken cells, and the supernatant was further centrifuged at 30,000 g for 1 hour (4° C.) to isolate a pelleted particulate fraction (putative membrane fraction) and a supernatant. The different fractions were characterised by electrophoresis and Western Blotting using an antibody against the Rho protein.

CV-1 = assay: expanded in vitro screen, CV-1 normal cell line; assay type: cell-based, monkey; conditions: Primates, CV-1, Kidney fibroblasts
Procedure: as §1

FADU = assay: expanded in vitro screen, FADU; assay type: cell-based; conditions: Homo sapiens, Pharnynx, solid
Procedure: as §1

Vero cells [1] = assay: effect of LPA on the action of spisulosine 285 in Vero cells (Example D); assay type: cell-based; conditions: spisulosine alone, 24 hours
Excerpt: LPA is known to increase the level of stress fibers in cells by activation of the Rho protein. The effect of LPA on cells treated with spisulosine 285, and untreated cells was examined. […]

Hs 746T = assay: expanded in vitro screen, Hs 746T; assay type: cell-based; conditions: Homo sapiens, Hs746T, Stomach, solid
Procedure: as §1

A-549 = assay: in vitro tumor cell line activity, A-549; assay type: cell-based
RAMOS = assay: expanded in vitro screen, RAMOS; assay type: cell-based; conditions: Homo sapiens, Burkitts
Procedure: as §1

HL60 = assay: expanded in vitro screen, HL60; assay type: cell-based; conditions: Homo sapiens, HL-60; HL60, Leukemia
Procedure: as §1

MEL-28 = assay: in vitro tumor cell line activity, MEL-28; assay type: cell-based
Vero cells [2] = assay: Vero cell morphology (Example A); assay type: cell-based; conditions: 0.5 mM, 4 hours
Procedure: Vero cells were grown in Dulbecco's modified Eagle medium supplemented with 10% foetal bovine serum. Spisulosine or LPA were added to these cultures to a concentration of […] and 50–10 mM respectively, from 4 to 24 hours. Cells were counted with the […] haemocytometer procedure using a solution of 0.4% Trypan blue in Hanks buffered Saline (Celis and Celis, “General Procedures for Tissue Culture in Cell Biology, a Laboratory Handbook” Academic Press Inc, Vol 1, pp. 5–17.)
Vero cells were incubated with spisulosine 285 (0.5 mM) for 4 hours. […] Panel c represents a higher magnification of the culture to which spisulosine was added.

HT-29 = assay: expanded in vitro screen, HT-29; assay type: cell-based; conditions: Homo sapiens; HT-29, Colon, solid
Procedure: as §1

MX-1 = assay: expanded in vitro screen, MX-1; assay type: cell-based; conditions: Homo sapiens, MX1; MX-1, Mammary, solid
Procedure: as §1

H9 = assay: expanded in vitro screen, H9; assay type: cell-based; conditions: Homo sapiens; H9, Lymphoma
Procedure: as §1

CCRF-SB = assay: expanded in vitro screen, CCRF-SB; assay type: cell-based; conditions: Homo sapiens, Leukemia
Procedure: as §1

Structure (SMILES): CCCCCCCCCCCCCCC[C@@H](O)[C@H](C)N [Spisulosine 285, (2S,3R)-2-Amino-3-octadecanol]
- IC50 (K562): 0.0157 nM
- IC50 (786-0): 0.00275 nM
- amount or mobility of Rho (Rho protein): No significant change
- proportion of Rho associated with the particulate fraction (Rho protein): decrease
- IC50 (CV-1): 0.0276 nM
- IC50 (FADU): 0.00499 nM
- cell morphology (Vero cells [1]): appearance of rounded cells
- IC50 (Hs 746T): 0.00789 nM
- active against tumor cell line in vitro (concentration) (A-549): 0.05 mg/mL
- IC50 (RAMOS): 0.0482 nM
- IC50 (HL60): 0.0085 nM
- active against tumor cell line in vitro (concentration) (MEL-28): 0.05 mg/mL
- cell shape (Vero cells [2]): altered from polygonal (untreated cells, panel a) to a fusiform shape
- IC50 (HT-29): 0.00256 nM
- IC50 (MX-1): 0.0389 nM
- IC50 (H9): 0.031 nM
- IC50 (CCRF-SB): 1.05 nM
